Tested on: IL-12
Assay: Human in vitro assay: inhibition of IL-12 production in IFNγ/LPS- or IFNγ/SAC-stimulated human PBMC or THP-1 cells (ELISA)
Assay type: cell-based
Details: read-out: IC50 Range (representative in vitro IC50 data)
Summary of the method: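 PBMC (5×10^5 cells/well) primed with IFNγ 30 U/mL for 22 h then LPS 1 μg/mL, or IFNγ 100 U/mL then SAC 0.01%; THP-1 primed with IFNγ 100 U/mL for 22 h then SAC 0.025%, with compound in 0.25% DMSO. Supernatant IL-12 p70/p40 measured by sandwich ELISA after 18 h; IC50 derived; viability by MTS.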

IC50 [nM]	Compound
≥ 1000	COCCN(C)c1cc(C(=O)Nc2cc(C)cc(C)n2)nc(N2CCOCC2)n1 [Compound 238, 6-[(2-Methoxy-ethyl)-methyl-amino]-2-morpholin-4-yl-pyrimidine-4-carboxylic acid (4,6-dimethyl-pyridin-2-yl)-amide]
≥ 1000	NC(=O)c1cccc(NC(=O)c2cc(N3CCOCC3)nc(N3CCOCC3)n2)c1 [Compound 52, 2,6-Di-morpholin-4-yl-pyrimidine-4-carboxylic acid (3-carbamoyl-phenyl)-amide]
< 1000	CCc1c(C)[nH]c2ccc(NC(=O)c3cc(N4CCC5(CC4)OCCO5)nc(N4CCOCC4)n3)cc12 [Compound 180, 6-(1,4-Dioxa-8-aza-spiro[4.5]dec-8-yl)-2-morpholin-4-yl-pyrimidine-4-carboxylic acid (3-ethyl-2-methyl-1H-indol-5-yl)-amide]
≥ 1000	CN(C)C(=O)c1cccc(NC(=O)c2cc(OCCN3CCOCC3)nc(N3CCOCC3)n2)c1 [Compound 53, 2-Morpholin-4-yl-6-(2-morpholin-4-yl-ethoxy)-pyrimidine-4-carboxylic acid (3-dimethylcarbamoyl-phenyl)-amide]
< 1000	O=C(Nc1cc(OCCN2CCOCC2)nc(N2CCOCC2)n1)Nc1ccccc1Cl [Compound 132, 1-(2-Chloro-phenyl)-3-[2-morpholin-4-yl-6-(2-morpholin-4-yl-ethoxy)-pyrimidin-4-yl]-urea]
≥ 1000	COCCN(C)c1cc(C(=O)Nc2cccc(C(F)(F)F)c2)nc(N2CCOCC2)n1 [Compound 209, 6-((2-methoxyethyl)(methyl)amino)-2-morpholino-N-(3-(trifluoromethyl)phenyl)pyrimidine-4-carboxamide]
≥ 1000	COCCN(C)c1cc(C(=O)Nc2cc(-c3ccc(Cl)cc3)nn2C)nc(N2CCOCC2)n1 [Compound 227, 6-[(2-Methoxy-ethyl)-methyl-amino]-2-morpholin-4-yl-pyrimidine-4-carboxylic acid [5-(4-chloro-phenyl)-2-methyl-2H-pyrazol-3-yl]-amide]
≥ 1000	COCCN(C)c1cc(C(=O)Nc2nc(C)cc(C)n2)nc(N2CCOCC2)n1 [Compound 240, 6-[(2-Methoxy-ethyl)-methyl-amino]-2-morpholin-4-yl-pyrimidine-4-carboxylic acid (4,6-dimethyl-pyrimidin-2-yl)-amide]
< 1000	Cc1[nH]c2ccc(NC(=O)c3cc(N4CCC5(CC4)OCCO5)nc(N4CCOCC4)n3)cc2c1C [Compound 172, 6-(1,4-Dioxa-8-aza-spiro[4.5]dec-8-yl)-2-morpholin-4-yl-pyrimidine-4-carboxylic acid (2,3-dimethyl-1H-indol-5-yl)-amide]
< 1000	CCOC(=O)C1CCN(c2cc(C(=O)Nc3ccc4[nH]c(C)c(C)c4c3)nc(N3CCOCC3)c2)CC1 [Compound 176, 2′-(2,3-Dimethyl-1H-indol-5-ylcarbamoyl)-6′-morpholin-4-yl-3,4,5,6-tetrahydro-2H-[1,4′]bipyridinyl-4-carboxylic acid ethyl ester]
< 1000	Cc1[nH]c2ccc(NC(=O)c3cc(OCCN4CCOC4=O)nc(N4CCOCC4)n3)cc2c1C [Compound 21, 2-Morpholin-4-yl-6-[2-(2-oxo-oxazolidin-3-yl)-ethoxy]-pyrimidine-4-carboxylic acid (2,3-dimethyl-1H-indol-5-yl)-amide]
< 1000	O=C(Nc1cccc(I)c1)Nc1cc(OCCN2CCOCC2)nc(N2CCOCC2)n1 [Compound 130, 1-(3-Iodo-phenyl)-3-[2-morpholin-4-yl-6-(2-morpholin-4-yl-ethoxy)-pyrimidin-4-yl]-urea]
< 1000	Cc1[nH]c2ccc(NC(=O)c3cc(NCC(=O)N(C)C)nc(N4CCOCC4)n3)cc2c1C [Compound 112, 6-(Dimethylcarbamoylmethyl-amino)-2-morpholin-4-yl-pyrimidine-4-carboxylic acid (2,3-dimethyl-1H-indol-5-yl)-amide]
< 1000	CCc1c(C)[nH]c2ccc(NC(=O)c3cc(N4CCC(C(N)=O)CC4)nc(N4CCOCC4)n3)cc12 [Compound 183, 6-(4-Carbamoyl-piperidin-1-yl)-2-morpholin-4-yl-pyrimidine-4-carboxylic acid (3-ethyl-2-methyl-1H-indol-5-yl)-amide]
< 1000	O=C(Nc1cccc(-n2cccc2)c1)c1cc(OCCN2CCOCC2)nc(N2CCOCC2)n1 [Compound 285, 2-Morpholin-4-yl-6-(2-morpholin-4-yl-ethoxy)-pyrimidine-4-carboxylic acid (3-pyrrol-1-yl-phenyl)-amide]
≥ 1000	O=C(Nc1cc(OCCN2CCOCC2)nc(N2CCOCC2)n1)Nc1nnc(C2CC2)s1 [Compound 141, 1-(5-Cyclopropyl-[1,3,4]thiadiazol-2-yl)-3-[2-morpholin-4-yl-6-(2-morpholin-4-yl-ethoxy)-pyrimidin-4-yl]-urea]
< 1000	CCc1c(C)[nH]c2ccc(NC(=O)Nc3cc(C)nc(N4CCOCC4)n3)cc12 [Compound 267, 1-(3-ethyl-2-methyl-1H-indol-5-yl)-3-(6-methyl-2-morpholinopyrimidin-4-yl)urea]
≥ 1000	Cc1ccc(-c2csc(NC(=O)Nc3cc(OCCN4CCOCC4)nc(N4CCOCC4)n3)n2)cc1 [Compound 142, 1-[2-Morpholin-4-yl-6-(2-morpholin-4-yl-ethoxy)-pyrimidin-4-yl]-3-(4-p-tolyl-thiazol-2-yl)-urea]

IC50 [nM]	Compound
< 1000	CCc1c(C)[nH]c2ccc(NC(=O)c3cc(OCCN4CCOC4=O)nc(N4CCOCC4)n3)cc12 [Compound 222, 2-Morpholin-4-yl-6-[2-(2-oxo-oxazolidin-3-yl)-ethoxy]-pyrimidine-4-carboxylic acid (3-ethyl-2-methyl-1H-indol-5-yl)-amide]
≥ 1000	NS(=O)(=O)c1cccc(NC(=O)c2cc(OCCN3CCOCC3)nc(N3CCOCC3)n2)c1 [Compound 50, 2-Morpholin-4-yl-6-(2-morpholin-4-yl-ethoxy)-pyrimidine-4-carboxylic acid (3-sulfamoyl-phenyl)-amide]
≥ 1000	CN(C)c1ccc(NC(=O)c2cc(OCCN3CCOCC3)nc(N3CCOCC3)n2)cc1 [Compound 57, 2-Morpholin-4-yl-6-(2-morpholin-4-yl-ethoxy)-pyrimidine-4-carboxylic acid (4-dimethylamino-phenyl)-amide]
≥ 1000	O=C(Nc1cc(OCCN2CCOCC2)nc(N2CCOCC2)n1)Nc1cccc2c(O)cccc12 [Compound 138, 1-(5-Hydroxy-naphthalen-1-yl)-3-[2-morpholin-4-yl-6-(2-morpholin-4-yl-ethoxy)-pyrimidin-4-yl]-urea]
≥ 1000	NC(=O)c1cccc(NC(=O)c2cc(OCCN3CCOC3=O)nc(N3CCOCC3)n2)c1 [Compound 43, 2-Morpholin-4-yl-6-[2-(2-oxo-oxazolidin-3-yl)-ethoxy]-pyrimidine-4-carboxylic acid (3-carbamoyl-phenyl)-amide]
≥ 1000	O=C(Nc1ccc2c(c1)CCC2)Nc1cc(N2CCOCC2)nc(OCCN2CCOCC2)n1 [Compound 120, 1-Indan-5-yl-3-[6-morpholin-4-yl-2-(2-morpholin-4-yl-ethoxy)-pyrimidin-4-yl]-urea]
≥ 1000	COc1ccc(CCOc2cc(C(=O)Nc3cccc(C)c3)cc(N3CCOCC3)n2)cc1OC [Compound 65, 2-[2-(3,4-Dimethoxy-phenyl)-ethoxy]-6-morpholin-4-yl-N-m-tolyl-isonicotinamide]
< 1000	Cc1c(C)n(C)c2ccc(NC(=O)c3cc(N4CCOCC4)nc(N4CCOCC4)n3)cc12 [Compound 283, 2,6-Di-morpholin-4-yl-pyrimidine-4-carboxylic acid (1,2,3-trimethyl-1H-indol-5-yl)-amide]
< 1000	Cc1cc(C(=O)Nc2ccc3[nH]c(C)c(C)c3c2)nc(N2CCOCC2)n1 [Compound 253, N-(2,3-dimethyl-1H-indol-5-yl)-6-methyl-2-morpholinopyrimidine-4-carboxamide]
≥ 1000	CNc1ccc(NC(=O)c2cc(OCCN3CCOCC3)nc(N3CCOCC3)n2)cc1C [Compound 289, 2-Morpholin-4-yl-6-(2-morpholin-4-yl-ethoxy)-pyrimidine-4-carboxylic acid (3-methyl-4-methylamino-phenyl)-amide]
< 1000	CN(C)c1cccc(NC(=O)c2cc(OCCN3CCOCC3)cc(N3CCOCC3)n2)c1 [Compound 155, 6-Morpholin-4-yl-4-(2-morpholin-4-yl-ethoxy)-pyridine-2-carboxylic acid (3-dimethylamino-phenyl)-amide]
≥ 1000	COCCN(C)c1cc(C(=O)Nc2nc(C(C)(C)C)cs2)nc(N2CCOCC2)n1 [Compound 201, N-(4-tert-butylthiazol-2-yl)-6-((2-methoxyethyl)(methyl)amino)-2-morpholinopyrimidine-4-carboxamide]
< 1000	COCCN(C)c1cc(C(=O)Nc2ccc3c(c2)N(C)CC3)nc(N2CCOCC2)n1 [Compound 211, 6-((2-methoxyethyl)(methyl)amino)-N-(1-methylindolin-6-yl)-2-morpholinopyrimidine-4-carboxamide]
< 1000	Cc1ccc(NC(=O)c2cc(N3CCOCC3)nc(N3CCOCC3)n2)cc1C [Compound 51, 2,6-Di-morpholin-4-yl-pyrimidine-4-carboxylic acid (3,4-dimethyl-phenyl)-amide]
< 1000	CC(=O)N1CCN(c2cc(NC(=O)Nc3ccc4[nH]c(C)c(C)c4c3)nc(N3CCOCC3)n2)CC1 [Compound 264, 1-(6-(4-acetylpiperazin-1-yl)-2-morpholinopyrimidin-4-yl)-3-(2,3-dimethyl-1H-indol-5-yl)urea]
< 1000	O=C(Nc1ccc2cc[nH]c2c1)c1cc(OCCN2CCOCC2)nc(N2CCOCC2)n1 [Compound 275, 2-Morpholin-4-yl-6-(2-morpholin-4-yl-ethoxy)-pyrimidine-4-carboxylic acid (1H-indol-6-yl)-amide]
< 1000	COCCN(C)c1cc(C(=O)Nc2cccc(N(C)C)c2)nc(N2CCOCC2)n1 [Compound 302, 6-[(2-Methoxy-ethyl)-methyl-amino]-2-morpholin-4-yl-pyrimidine-4-carboxylic acid (3-dimethylamino-phenyl)-amide]
